Where no end group is shown, it is not given here.
How the values were obtained:
Assay in all cases: Candida growth inhibition, micro-broth dilution
Format in all cases: cell-based
Candida albicans 5314 = conditions: estimate
Protocol: (§1) The proteins were chemically synthesised by solid phase peptide synthesis at a purity of >90% by (GL Biochem Ltd. Shanghai, People's Republic of China). Post-synthesis, the proteins were stored lyophilised at −20° C. to maintain their integrity. The proteins were weighed and dissolved in ultrapure water as a stock solution prior to experimentation. For all assays a 1:1 dilution was made with double-strength broth, the composition of which was tailored to the specific requirements of the organism.
(§2) Antifungal activity was assessed by a micro-broth dilution method modified by Handcock for cationic peptides and proteins. Given the propensity of cationic peptides and proteins to bind polystyrene, 96-well polypropylene plates were used as an alternative. Candida species MIC analysis were performed using ½ strength potato dextrose broth (PDB).
(§3) 96-well flat-bottomed polypropylene plates were prepared 30 mins prior to inoculation. The outer wells of the plate were filled with 200 μl of diH2O to mitigate evaporation in test lanes during incubation with low volumes and for prolonged periods. Given the high cost of the synthetic proteins minimal volume of 100 μl was utilised, and preliminary testing was conducted in duplicate. 50 μl of ½ strength PDB was dispensed into all remaining wells except column 3. 100 μl was added to column 2 and acting as a ‘broth only’ sterile control. Subsequently, 100 μl of the top standard protein solution, prepared at a 2× concentration (500 μg/ml) and suspended in half-strength PDB, was added to column 3. Using a multichannel pipette, 50 μl from each well in column 3 (rows B through G) were mixed with an equal volume of broth in column 4. This procedure was repeated by serial diluting the protein down to column 10. The final […] was not transferred to lane 11 but was instead disposed of.
(§4) Candida species were grown over 48 hours on ½ strength potato dextrose agar (PDA) at a temperature of 35° C. Cells were harvested directly from the agar plates and resuspended in 2 ml of ½ PDB. The cell concentration was determined using a haemocytometer, and subsequently, cells were diluted to 1×10^5 cells/ml in ½ strength PDB, resulting in a concentration of 5,000 cells per well. 50 μl of the diluted cell suspension was added to the wells in columns 3-11, working backwards from the lowest protein concentration. This step ensured a total volume of 100 μl in each well, giving a final top standard protein concentration of 250 μg/ml in the assay. Column 11 was designated as the growth control, containing cells only.
(§5) Absorbance readings were taken at time zero (T=0) at a wavelength of 595 nm for the analysis of all Candida spp. Subsequently, all plates were incubated at 35° C. for 24 hrs. To ensure uniform resuspension of cells, a multichannel pipette was used to agitate the cell suspension. A second series of absorbance measurements at 595 nm was conducted at T=24, enabling a comprehensive assessment of growth over the 24-hour period).
(§6) The activities of synthetic plant-like defensin analogues Olv1 and Olv2 were assessed against Candida albicans sc5314 (Table 2, FIG. 5A), Candida parapsilosis (Table 3, FIG. 5B), Candida tropicalis (Table 4, FIG. 5C) and Candida krusei (Table 5, FIG. 5D).
(§7) Log IC50: The logarithm of the concentration at which 50% inhibition of growth is observed, Hill-slope: Describes the steepness of the curve; a steeper slope indicates a more cooperative binding to the target and a sharper transition between the non-effective and effective doses and IC50: The actual concentration at which 50% inhibition is achieved, derived from the Log IC50.

Candida parapsilosis = conditions: estimate; for Hill-slope: dose-response curve; for IC50 / LogIC50: growth inhibition, 24 hrs, 35° C., ½ strength PDB
Protocol: as §1, §2, §3, §4, §5, §6, §7

Candida tropicalis = conditions: estimate; for Hill-slope: dose-response curve
Protocol: as §1, §2, §3, §4, §5, §6, §7

Candida krusei = tested on: Candida krusei; parameters: LogIC50: unit not given here; conditions: estimate; for Hill-slope: dose-response curve; for IC50 / LogIC50: growth inhibition, 24 hrs, 35° C., ½ strength PDB
Protocol: as §1, §2, §3, §4, §5, §6, §7

[1] = Candida albicans 5314, growth inhibition, 24 hrs, 35° C., ½ strength PDB
[2] = growth inhibition, 24 hrs, 35° C., ½ strength PDB

Sequence	Hill-slope (Candida albicans 5314; Candida albicans 5314, dose-response curve)	LogIC50 (Candida albicans 5314; [1])	Hill-slope (Candida parapsilosis)	IC50 (Candida parapsilosis) [µg/mL]	LogIC50 (Candida parapsilosis)	Hill-slope (Candida tropicalis)	IC50 (Candida tropicalis; [2]) [µg/mL]	LogIC50 (Candida tropicalis; [2])	Hill-slope (Candida krusei)	IC50 (Candida krusei) [µg/mL]	LogIC50 (Candida krusei)	IC50 (Candida albicans 5314; [1]) [µg/mL]
RVCSRLSKTWSGLCLNSGNCNRQCRNWEGALRGACHKRGWGFACFCYRKC (cysteines drawn unpaired) [Olv2]	−11.59	1.866	−3.474	54.233	1.734	−4.862	26.098	1.417 log10(μg/ml)	−10.527	40.346	1.606	–
RTCESQSHRFKGSCVSKSNCAAVCQTEGFPDGYCRGFRRRCFCSKHC (cysteines drawn unpaired) [Olv1]	–	1.974	−3.181	56.919	1.755	−9.410	–	1.602 log10(μg/ml)	−11.209	90.642	1.957	94.113

Reference: patent US20250257103A1, “Antimicrobial Proteins” (The Olive Feed Corporation Limited, priority 2024, published 2025)
